Test results published in US20240398785A1, “SMALL MOLECULE DRUGS FOR THE INDUCTION OF TRAINED IMMUNITY” (THE UNIVERSITY OF CHICAGO, priority 2023, published 2024).

Experiments:
mice = test: A1155463 in-vivo training, LPS challenge; set-up: species or system mouse
Description: FIGS. 6A-6H: in-vivo A1155463 trained immunity (TI) assays. FIG. 6A is a schematic showing the in-vivo training schedule. Mice were dosed intraperitoneally (i.p.) with training material (PBS or A1155463 at 15 milligrams per kilogram body weight (mg/kg)) daily for six days. […] FIG. 6B is a graph showing the interleukin-6 (IL-6) and tumor necrosis factor-alpha (TNF-α) levels (expressed as picograms per milliliter (pg/ml) 1 hour (h) following LPS challenge with either PBS (black) or A1155463 (pink); n=5. FIG. 6C is a graph showing the percentage (%) of small peritoneal macrophages (SPMs) from the peritoneal cavity of PBS (black) or A1155463 trained (pink) mice 2 h post LPS challenge on day 7. FIG. 6D is a graph showing the IL-6 levels (pg/ml) from bone-marrow cells isolated on day 7 challenged ex-vivo with LPS from either PBS (black) or A1155463 (pink) trained mice; n=3. FIG. 6E is a schematic showing the in-vivo training schedule for B16.F10 tumor challenge. FIG. 6F is a graph showing the tumor volumes (in cubic millimeters (mm3)) of mice trained with PBS (black) or A1155463 (pink) mice; n=8. FIG. 6G is a schematic of the in-vivo training schedule for B16.F10 tumor challenge with checkpoint therapy (CPT) administered on day 14 and 17. FIG. 6H is a graph showing tumor volumes (mm^3) of mice trained with PBS (black; n=4) or A1155463 (pink; n=5).
FIG. 10: Ruling out innate immune priming: Mice were trained with PBS or vehicle (black) or A1155463 (pink) according to schedule illustrated in FIG. 6A.
Since A1155463 induced training effects in-vitro, its ability to induce training in mice was studied. […] The vehicle control group was also dosed similarly to account for solvent effects. To rule out the impact of innate immune priming due to the high dosage, systemic cytokines were checked for 24 hours after the last dosing on day 6. […] […].
Apart from increased systemic cytokines, recruitment of monocyte-derived small peritoneal macrophages (SPMs) is another hallmark of enhanced training. […] Central effects of trained immunity occur at the bone-marrow progenitor favoring myelopoiesis.^39 To test if A1155463 induced training effects in bone-marrow cells, cells were isolated from the bone-marrow seven days following the training schedule described in FIG. 6A. Bone-marrow cells from PBS or A1155463 trained cells were challenged with 5 ng/mL of LPS and the supernatant was analyzed 24 hours later. […].

BMDMs = test: A1155463 immunogenicity, BMDM supernatant after 24 hours; assay type: cell-based, mouse; conditions: no challenge
Description: FIG. 7: Testing immunogenicity of A115463 on BMDMs: BMDMs (100,000 cells per well) were incubated with PBS (red), different doses of A1155463 (blue 10 uM, green 1 uM or purple 0.1 uM) or different concentrations of DMSO, reflective of the A1155463 doses for 24 h.
(§1) Bcl-xL is an anti-apoptotic protein with some role in mediating inflammatory reactions.^32,33 Most documented inducers of trained immunity elicit an initial immune response upon administration. However, A1155463 has never been reported elicit inflammatory responses in vitro. To test if A1155463 elicited an enhanced innate response on its own in vitro, supernatant from BMDMs cultured with A1155463 for 24 hours was analyzed. […] The non-immunogenicity of A1155463 was validated using an NF-kb reporter cell line. […] Taken together, this evidence supports that A1155463 is a non-immunogenic trained immunity inducing molecule.

RAW-Blue cells = test: RAW-Blue NF-kb reporter assay; assay type: cell-based; conditions: after 18 hours
Description: FIG. 8: RAW-Blue assay: RAW-Blue cells (100,000 cells per well) were incubated with PBS (black), A1155463 (pink) or 100 ng/mL LPS (green) for 18 h.
as §1

[1] = 15 mg/kg i.p. daily for 6 days, LPS 5 μg per mouse, after 1 hour

CN(C)CC#Cc1ccc(OCCCc2sc(N3CCc4cccc(C(=O)Nc5nc6ccccc6s5)c4C3)nc2C(=O)O)c(F)c1 [A1155463, 2-(8-(benzo[d]thiazol-2-ylcarbamoyl)-3,4-dihydroisoquinolin-2(1H)-yl)-5-(3-(4-(3-(dimethyl-amino)prop-1-yn-1-yl)-2-fluorophenoxy)propyl)thiozole-4-carboxylic acid]
systemic IL-6 or TNF-α without challenge (priming) (mice; 15 mg/kg i.p. daily for 6 days, 24 hours after the last dosing): No systemic IL-6 or TNF-α was observed | increase in IL-6 following LPS challenge (mice; [1]): 2.3 fold | increase in TNF-α following LPS challenge (mice; [1]): 1.97 fold | percentage of SPMs (mice; two hours post-LPS challenge): non-significant increase | IL-6 levels vs PBS-treated BMDMs (BMDMs): No significant difference | NF-kb reporter signal vs PBS-treated cells (RAW-Blue cells): No significant difference
